For four molecules, IC50, EC50 and AC50 results are on record in ChEMBL document CHEMBL1201862, “PubChem BioAssay data set” (2004).

Assay [1] addresses T1, Neuropeptide Y receptor type 1 (Homo sapiens, UniProt P25929).
T1 sequence (P25929 whole entry): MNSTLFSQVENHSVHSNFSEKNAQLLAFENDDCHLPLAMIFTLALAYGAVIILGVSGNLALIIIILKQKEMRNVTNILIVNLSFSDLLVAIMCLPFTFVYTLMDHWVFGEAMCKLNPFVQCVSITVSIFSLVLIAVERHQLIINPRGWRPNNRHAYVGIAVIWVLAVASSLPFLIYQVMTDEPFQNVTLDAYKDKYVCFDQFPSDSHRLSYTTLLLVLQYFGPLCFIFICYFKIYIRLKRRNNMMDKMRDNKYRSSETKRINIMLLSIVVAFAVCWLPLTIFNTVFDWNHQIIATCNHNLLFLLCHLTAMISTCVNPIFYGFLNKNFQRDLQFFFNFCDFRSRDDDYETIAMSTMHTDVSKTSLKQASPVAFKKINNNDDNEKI
It is filed as functional.

Assay [2] addresses T2, Neuropeptide Y receptor type 2 (Homo sapiens, UniProt P49146).
T2 sequence (P49146 whole entry): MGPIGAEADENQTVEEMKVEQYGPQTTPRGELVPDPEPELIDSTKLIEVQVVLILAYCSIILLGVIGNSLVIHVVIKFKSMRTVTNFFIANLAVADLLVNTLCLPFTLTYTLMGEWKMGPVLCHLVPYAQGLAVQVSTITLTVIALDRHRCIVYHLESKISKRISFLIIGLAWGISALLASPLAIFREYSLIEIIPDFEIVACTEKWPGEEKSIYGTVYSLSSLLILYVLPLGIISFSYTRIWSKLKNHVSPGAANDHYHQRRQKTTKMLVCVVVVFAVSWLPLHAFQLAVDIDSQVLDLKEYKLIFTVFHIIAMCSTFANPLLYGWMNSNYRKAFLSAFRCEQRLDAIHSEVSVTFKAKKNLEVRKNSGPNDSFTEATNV
The class given is functional, cell-based.

In the next assay the target is Phospholipase A2 (Homo sapiens, UniProt P04054). Description: PLA2 enzyme inhibitors, dose response, counter-screen for ATG4B inhibitor project, biochemical, set 2 (AID 588586). It is filed as functional. Background: A counterscreen serves to expose hits that act by an unwanted route or on another target.
The target in the next assay is T3, Cysteine protease ATG4B (Homo sapiens, UniProt Q9Y4P1).
T3 sequence (Q9Y4P1 whole entry): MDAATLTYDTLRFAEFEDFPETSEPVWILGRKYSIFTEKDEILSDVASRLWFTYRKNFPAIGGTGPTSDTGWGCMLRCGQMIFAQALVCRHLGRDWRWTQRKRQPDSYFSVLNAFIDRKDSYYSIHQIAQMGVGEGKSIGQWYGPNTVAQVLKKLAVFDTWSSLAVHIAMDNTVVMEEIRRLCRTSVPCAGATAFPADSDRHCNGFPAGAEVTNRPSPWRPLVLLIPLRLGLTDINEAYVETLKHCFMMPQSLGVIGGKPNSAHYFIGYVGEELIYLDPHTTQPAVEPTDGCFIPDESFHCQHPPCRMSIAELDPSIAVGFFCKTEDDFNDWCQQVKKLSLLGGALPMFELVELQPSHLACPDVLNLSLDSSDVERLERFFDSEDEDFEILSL
Description: ATG4B protease inhibitors, dose response, biochemical, fluorescence, set 2 (AID 588584). The class given is functional.

For assay [3], the target named is T4, Voltage-gated N-type calcium channel alpha-1B subunit/Amyloid beta A4 precursor protein-binding family A member 1 (Homo sapiens, UniProt Q00975+Q02410). The class given is protein assay.
Assay [4] has as its target T4, Voltage-gated N-type calcium channel alpha-1B subunit/Amyloid beta A4 precursor protein-binding family A member 1. It is filed as protein assay. This is another data set of the same source.
The target in assay [5] is T5, Apoptotic protease-activating factor 1 (Homo sapiens, UniProt O14727).
T5 sequence (O14727 whole entry): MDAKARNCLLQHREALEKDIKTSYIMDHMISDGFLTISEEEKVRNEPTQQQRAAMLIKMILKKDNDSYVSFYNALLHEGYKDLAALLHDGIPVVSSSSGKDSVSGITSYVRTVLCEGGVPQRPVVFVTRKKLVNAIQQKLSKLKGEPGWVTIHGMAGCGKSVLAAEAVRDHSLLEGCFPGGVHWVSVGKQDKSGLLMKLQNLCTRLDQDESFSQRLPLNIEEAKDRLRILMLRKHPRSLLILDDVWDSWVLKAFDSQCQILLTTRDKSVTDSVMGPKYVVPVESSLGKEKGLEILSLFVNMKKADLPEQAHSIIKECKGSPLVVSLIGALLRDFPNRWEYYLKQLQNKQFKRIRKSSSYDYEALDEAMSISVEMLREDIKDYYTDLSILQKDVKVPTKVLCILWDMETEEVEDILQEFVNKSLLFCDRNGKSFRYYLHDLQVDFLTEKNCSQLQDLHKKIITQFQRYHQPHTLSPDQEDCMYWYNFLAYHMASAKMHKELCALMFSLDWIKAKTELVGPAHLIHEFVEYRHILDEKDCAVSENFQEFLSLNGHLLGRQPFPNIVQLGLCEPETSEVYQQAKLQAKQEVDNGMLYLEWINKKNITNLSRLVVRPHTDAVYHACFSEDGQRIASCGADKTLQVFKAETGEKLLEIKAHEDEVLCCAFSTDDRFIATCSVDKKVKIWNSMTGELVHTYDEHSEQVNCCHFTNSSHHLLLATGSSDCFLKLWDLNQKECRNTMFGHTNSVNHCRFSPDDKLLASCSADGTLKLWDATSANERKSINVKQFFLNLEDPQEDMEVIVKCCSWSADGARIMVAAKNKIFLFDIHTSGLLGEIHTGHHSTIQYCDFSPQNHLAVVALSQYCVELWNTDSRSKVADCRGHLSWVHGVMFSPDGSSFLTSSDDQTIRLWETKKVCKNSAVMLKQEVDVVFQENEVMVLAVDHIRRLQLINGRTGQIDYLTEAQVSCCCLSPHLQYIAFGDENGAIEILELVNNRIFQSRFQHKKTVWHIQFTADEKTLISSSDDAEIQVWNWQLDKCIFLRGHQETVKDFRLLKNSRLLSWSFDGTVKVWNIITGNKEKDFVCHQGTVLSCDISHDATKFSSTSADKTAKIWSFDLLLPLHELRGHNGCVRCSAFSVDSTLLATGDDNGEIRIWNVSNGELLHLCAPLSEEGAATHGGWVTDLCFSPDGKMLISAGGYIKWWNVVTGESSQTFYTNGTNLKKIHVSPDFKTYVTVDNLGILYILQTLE
Description: activation of Apaf-1 mediated apoptosis – fluorescent, uHTS hits, dose response (AID 588554). It is filed as functional.

Assay [6] has as its target T5, Apoptotic protease-activating factor 1. Description: SAR analysis of small molecule Activators of Apaf-1 in a Fluorescent assay. It is filed as functional. Particulars: read-out: EC50_Mean.
The target of assay [7] is T6, Small ubiquitin-related modifier 1 (Homo sapiens, UniProt P63165). Description: inhibitors of SUMO1 peptide binding, dose response, biochemical, fluorescence polarization, uHTS hits (AID 624382). Particulars: read-out: IC50_Mean. The class given is functional. For orientation: Polarisation of emitted light reports the rotation of a fluorescent probe.
The target of assay [8] is T6, Small ubiquitin-related modifier 1. As to the kind of experiment: inhibitors of SUMO1 partner interactions, dose response, biochemical, FRET (AID 624383). The class given is functional. The note with it: read-out: IC50_Mean.
The target of a further assay is Keap1/Nrf2 (Homo sapiens, UniProt Q14145). Description: Keap1-Nrf2 protein-protein interaction inhibitors, dose response, biochemical, fluorescence polarization, cherry-picked samples (AID 588683).
The test system of assay [9] is BJ. As to the kind of experiment: cytotoxicity toward BJ-TERT fibroblasts, dose response, cell-based, RAS-independent, luminescence (AID 1933). It is filed as functional. The note with it: Homo sapiens.
Assay [10] has as its system BJ. As to the kind of experiment: cells. It is filed as functional, cell-based. The note with it: Homo sapiens.
In assay [11] the test system is BJ. Description: cytotoxicity toward BJ-TERT-LT-ST fibroblasts, dose response, cell-based, RAS-independent, luminescence (AID 1935).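 Also: BJ fibroblasts immortalized with TERT plus LT and ST oncogenes.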 The class given is functional. Particulars: Homo sapiens.
Assay [12] can be described thus: cytotoxicity toward DRD oncogenic fibroblasts, dose response, cell-based, non-viral oncogenic, luminescence (AID 1934). Particulars: Homo sapiens. It is filed as functional.
For assay [13], the target named is T7, Microphthalmia-associated transcription factor (Homo sapiens, UniProt O75030).
T7 sequence (O75030 whole entry): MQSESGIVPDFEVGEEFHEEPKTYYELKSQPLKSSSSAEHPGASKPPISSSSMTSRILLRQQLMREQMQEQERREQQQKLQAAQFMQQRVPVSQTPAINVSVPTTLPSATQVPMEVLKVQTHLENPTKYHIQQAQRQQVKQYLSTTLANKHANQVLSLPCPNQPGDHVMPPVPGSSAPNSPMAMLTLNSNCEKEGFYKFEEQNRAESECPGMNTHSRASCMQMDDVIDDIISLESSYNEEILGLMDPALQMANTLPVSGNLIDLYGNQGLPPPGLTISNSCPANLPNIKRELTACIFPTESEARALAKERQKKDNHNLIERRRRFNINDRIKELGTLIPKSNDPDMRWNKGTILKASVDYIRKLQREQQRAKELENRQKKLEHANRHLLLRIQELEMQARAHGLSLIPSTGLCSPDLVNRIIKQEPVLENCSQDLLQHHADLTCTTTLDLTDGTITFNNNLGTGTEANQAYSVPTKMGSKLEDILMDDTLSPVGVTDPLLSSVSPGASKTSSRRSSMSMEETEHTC
Description: TRPM1 promoter luciferase signal decrease, dose response, MITF inhibitor project, cell-based, SK-MEL-5, cherry-picked, set 3 (AID 493073).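 Also: SK-MEL-5 melanoma cells with luciferase driven by the MITF target TRPM1 promoter.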 The class given is functional.

The subject of the next assay is A-375. Description: MITF: Counter assay: A375 proliferation Measured in Cell-Based System Using Plate Reader - 2084-03_Inhibitor_Dose_DryPowder_Activity. [Related pubchem assays (depositor defined):AID488944]. The class given is functional. The note with it: Homo sapiens.
A short description of assay [14]: Shn3 3'UTR reporter inhibitors, dose response, cell-based, Clone20 osteoblasts, firefly luciferase, cherry-picked (AID 624132).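 Also: firefly luciferase luminescence from reporter carrying the Shn3 3'UTR in osteoblasts.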 The class given is functional.
Assay [15] in a line: HepG2 cell cytotoxicity, dose response, cytotoxicity control for Shn3 inhibitor project, CellTiter-Glo, cherry-picked (AID 624134). It is filed as functional, cell-based.
The nature of assay [16]: control 3'UTR Renilla luciferase suppression, dose response, counter-screen for Shn3 inhibitor project, cell-based, Clone20-Shn3RL, cherry-picked (AID 624133). The class given is functional.

Molecules are shown by their SMILES. Active and inactive are the calls of the source.
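For EC50 Mean in this document: caspase-3 cleavage of fluorogenic Rh110 DEVD substrate downstream of apoptosome activation.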

T4 sequence (Q00975 whole entry): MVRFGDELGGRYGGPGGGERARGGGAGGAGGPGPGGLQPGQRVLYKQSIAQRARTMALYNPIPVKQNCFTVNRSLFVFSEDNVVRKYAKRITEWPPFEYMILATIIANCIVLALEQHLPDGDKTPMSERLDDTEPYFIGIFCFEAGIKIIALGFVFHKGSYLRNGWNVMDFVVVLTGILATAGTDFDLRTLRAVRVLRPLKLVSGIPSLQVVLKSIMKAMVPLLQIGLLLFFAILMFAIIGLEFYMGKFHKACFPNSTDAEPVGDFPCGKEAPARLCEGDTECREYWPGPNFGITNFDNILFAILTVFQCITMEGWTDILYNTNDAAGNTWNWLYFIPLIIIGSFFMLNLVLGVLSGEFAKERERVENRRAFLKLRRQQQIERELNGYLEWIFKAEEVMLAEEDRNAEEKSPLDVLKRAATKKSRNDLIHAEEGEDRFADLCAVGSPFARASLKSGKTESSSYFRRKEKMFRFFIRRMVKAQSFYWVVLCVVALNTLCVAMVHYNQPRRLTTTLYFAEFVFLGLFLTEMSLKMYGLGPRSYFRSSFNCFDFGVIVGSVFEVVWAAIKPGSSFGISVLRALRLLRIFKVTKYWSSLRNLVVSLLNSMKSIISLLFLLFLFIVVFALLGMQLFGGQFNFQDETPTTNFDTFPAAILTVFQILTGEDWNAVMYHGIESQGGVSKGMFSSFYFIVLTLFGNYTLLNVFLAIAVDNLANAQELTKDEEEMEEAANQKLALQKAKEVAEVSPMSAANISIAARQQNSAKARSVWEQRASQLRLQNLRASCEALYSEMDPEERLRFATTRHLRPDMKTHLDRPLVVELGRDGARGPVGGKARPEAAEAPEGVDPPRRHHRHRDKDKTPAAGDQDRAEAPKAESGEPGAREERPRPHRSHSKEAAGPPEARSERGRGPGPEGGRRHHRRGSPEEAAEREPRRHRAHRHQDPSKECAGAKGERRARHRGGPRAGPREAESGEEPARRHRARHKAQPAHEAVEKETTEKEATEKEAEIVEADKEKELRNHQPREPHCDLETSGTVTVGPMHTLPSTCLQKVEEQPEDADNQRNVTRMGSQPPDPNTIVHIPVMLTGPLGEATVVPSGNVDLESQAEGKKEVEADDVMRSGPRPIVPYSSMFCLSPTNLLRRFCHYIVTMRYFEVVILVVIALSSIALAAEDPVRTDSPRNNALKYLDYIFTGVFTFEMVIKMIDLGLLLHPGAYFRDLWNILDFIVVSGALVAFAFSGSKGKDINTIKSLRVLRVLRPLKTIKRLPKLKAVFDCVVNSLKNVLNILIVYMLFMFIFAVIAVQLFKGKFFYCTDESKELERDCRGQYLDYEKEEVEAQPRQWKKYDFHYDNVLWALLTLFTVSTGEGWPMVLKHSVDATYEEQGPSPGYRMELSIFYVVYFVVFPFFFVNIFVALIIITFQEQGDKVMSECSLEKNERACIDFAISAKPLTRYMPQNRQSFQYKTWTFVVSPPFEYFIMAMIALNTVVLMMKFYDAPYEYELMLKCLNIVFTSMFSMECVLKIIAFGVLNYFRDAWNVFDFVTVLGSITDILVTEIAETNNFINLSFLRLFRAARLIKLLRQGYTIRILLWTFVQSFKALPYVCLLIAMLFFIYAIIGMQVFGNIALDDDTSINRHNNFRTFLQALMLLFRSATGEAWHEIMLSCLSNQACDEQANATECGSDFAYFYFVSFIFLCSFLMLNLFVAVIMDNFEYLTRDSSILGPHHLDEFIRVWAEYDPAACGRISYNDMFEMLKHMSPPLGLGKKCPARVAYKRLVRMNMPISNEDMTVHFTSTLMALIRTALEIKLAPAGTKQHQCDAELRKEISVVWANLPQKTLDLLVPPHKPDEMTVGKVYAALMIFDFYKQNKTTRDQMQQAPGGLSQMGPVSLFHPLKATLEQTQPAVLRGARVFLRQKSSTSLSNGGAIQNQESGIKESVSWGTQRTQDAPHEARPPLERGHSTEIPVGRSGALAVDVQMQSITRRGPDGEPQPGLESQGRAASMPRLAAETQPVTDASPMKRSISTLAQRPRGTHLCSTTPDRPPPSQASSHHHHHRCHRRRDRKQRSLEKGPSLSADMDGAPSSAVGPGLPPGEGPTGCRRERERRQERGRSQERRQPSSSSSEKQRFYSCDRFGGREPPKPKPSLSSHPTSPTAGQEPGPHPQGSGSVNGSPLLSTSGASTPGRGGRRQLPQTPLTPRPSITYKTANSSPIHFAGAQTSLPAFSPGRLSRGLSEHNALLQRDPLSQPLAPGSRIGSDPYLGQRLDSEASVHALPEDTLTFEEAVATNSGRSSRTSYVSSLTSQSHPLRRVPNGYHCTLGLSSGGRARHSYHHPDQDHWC
T4 sequence (Q02410 whole entry): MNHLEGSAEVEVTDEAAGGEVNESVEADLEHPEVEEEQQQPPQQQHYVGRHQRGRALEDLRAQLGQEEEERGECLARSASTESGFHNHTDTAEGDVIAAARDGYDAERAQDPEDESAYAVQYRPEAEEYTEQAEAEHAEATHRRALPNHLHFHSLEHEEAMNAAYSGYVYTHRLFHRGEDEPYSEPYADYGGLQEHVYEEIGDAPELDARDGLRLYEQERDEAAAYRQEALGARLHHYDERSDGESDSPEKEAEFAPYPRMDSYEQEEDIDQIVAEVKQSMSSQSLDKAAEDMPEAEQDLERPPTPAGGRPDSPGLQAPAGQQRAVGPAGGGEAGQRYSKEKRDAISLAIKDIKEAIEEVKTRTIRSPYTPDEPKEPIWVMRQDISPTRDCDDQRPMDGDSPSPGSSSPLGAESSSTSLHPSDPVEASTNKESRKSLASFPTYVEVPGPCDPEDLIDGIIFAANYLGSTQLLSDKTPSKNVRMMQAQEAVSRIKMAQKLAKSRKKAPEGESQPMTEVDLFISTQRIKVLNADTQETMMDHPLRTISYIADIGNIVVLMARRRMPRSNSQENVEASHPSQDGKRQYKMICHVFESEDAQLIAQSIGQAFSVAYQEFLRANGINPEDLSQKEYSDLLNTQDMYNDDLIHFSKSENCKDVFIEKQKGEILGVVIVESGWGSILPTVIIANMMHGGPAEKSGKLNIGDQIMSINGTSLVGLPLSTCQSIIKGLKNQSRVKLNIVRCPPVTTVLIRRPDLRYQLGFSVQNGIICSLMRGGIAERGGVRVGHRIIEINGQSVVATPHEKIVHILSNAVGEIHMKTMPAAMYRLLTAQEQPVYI
T6 sequence (P63165 whole entry): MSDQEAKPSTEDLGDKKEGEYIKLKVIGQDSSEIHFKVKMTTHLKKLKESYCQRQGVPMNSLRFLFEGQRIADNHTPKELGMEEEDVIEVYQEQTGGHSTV
Keap1/Nrf2, sequence (Q16236 whole entry): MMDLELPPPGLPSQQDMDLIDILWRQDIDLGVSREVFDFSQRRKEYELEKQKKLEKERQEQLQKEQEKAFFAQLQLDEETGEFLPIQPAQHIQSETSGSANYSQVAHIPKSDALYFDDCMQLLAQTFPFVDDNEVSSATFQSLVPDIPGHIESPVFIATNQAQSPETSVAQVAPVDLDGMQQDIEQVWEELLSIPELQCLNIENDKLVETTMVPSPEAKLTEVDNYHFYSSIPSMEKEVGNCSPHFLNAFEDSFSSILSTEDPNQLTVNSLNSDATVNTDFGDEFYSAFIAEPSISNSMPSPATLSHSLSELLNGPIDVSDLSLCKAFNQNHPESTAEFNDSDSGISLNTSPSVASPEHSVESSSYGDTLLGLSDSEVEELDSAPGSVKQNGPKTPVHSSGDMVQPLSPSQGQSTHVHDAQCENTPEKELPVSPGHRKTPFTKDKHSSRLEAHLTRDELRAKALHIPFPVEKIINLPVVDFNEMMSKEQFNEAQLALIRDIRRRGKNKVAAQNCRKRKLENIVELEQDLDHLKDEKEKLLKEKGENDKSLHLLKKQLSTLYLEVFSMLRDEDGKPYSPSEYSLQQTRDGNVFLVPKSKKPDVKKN
Keap1/Nrf2, sequence (Q14145 whole entry): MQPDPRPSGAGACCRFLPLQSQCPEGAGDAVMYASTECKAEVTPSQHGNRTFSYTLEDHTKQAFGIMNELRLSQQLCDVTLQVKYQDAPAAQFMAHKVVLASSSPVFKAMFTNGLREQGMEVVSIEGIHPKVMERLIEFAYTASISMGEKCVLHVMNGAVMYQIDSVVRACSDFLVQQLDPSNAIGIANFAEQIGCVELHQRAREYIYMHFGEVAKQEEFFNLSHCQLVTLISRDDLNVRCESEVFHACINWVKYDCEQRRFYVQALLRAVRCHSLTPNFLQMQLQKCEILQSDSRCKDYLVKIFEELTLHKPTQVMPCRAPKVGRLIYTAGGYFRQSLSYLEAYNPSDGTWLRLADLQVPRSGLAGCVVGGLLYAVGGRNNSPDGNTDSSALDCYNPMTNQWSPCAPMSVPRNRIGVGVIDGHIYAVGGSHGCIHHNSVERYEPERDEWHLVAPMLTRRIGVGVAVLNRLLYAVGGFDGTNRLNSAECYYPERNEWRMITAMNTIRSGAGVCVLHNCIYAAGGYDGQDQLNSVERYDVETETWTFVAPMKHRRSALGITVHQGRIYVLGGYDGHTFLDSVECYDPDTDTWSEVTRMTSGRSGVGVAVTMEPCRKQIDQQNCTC
Phospholipase A2, sequence (P04054 whole entry): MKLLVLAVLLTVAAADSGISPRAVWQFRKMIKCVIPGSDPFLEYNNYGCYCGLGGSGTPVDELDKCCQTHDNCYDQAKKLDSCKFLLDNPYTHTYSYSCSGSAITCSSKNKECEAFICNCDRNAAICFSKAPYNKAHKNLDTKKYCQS

In the case of `Cc1ccccc1C(=O)c1cccn1CC(=O)NCCN1CCN(c2cccc(C)c2C)CC1`, the IC50 in assay [1] was 6.43 µM (active); in assay [2], 13.2 µM (not active); at Phospholipase A2, 17.7 µM (active); on Cysteine protease ATG4B it was 25.3 µM (inactive).

On to `O=C(Nc1nc2ccsc2c(=O)s1)c1ccco1`, for which the IC50 is 11.8 µM (active) in [3], > 50 µM (inactive) in assay [4], > 66.6 µM (inactive) in assay [7] and 15.9 µM (active) in [8]. For the same molecule, the EC50 in assay [5] is 22.8 µM (active); in assay [6], 59 µM (active).

As usually defined, the AC50 is the concentration at which the activity in the assay is half-maximal. Take `O=c1cc(CN2CCCc3ccccc32)nc2sccn12`: the AC50 at Keap1/Nrf2 was 17.1 µM (active).

As for `Cc1cccc(N2C(=O)NC(=O)/C(=C\C=C\c3ccco3)C2=O)c1`, the EC50 in the assay with BJ [9] is 4.02 µM (active); in the assay with BJ [10], 11.3 µM (active); with BJ [11], 4.93 µM (inconclusive); in [12], 3.62 µM (active). Further, the AC50 was 5.75 µM (active) in assay [13]; 28.4 µM (active) in the assay on A-375; 3.06 µM (active) in assay [14]; 25.6 µM (active) in [15]; 26.4 µM (active) in assay [16].
